Measured values taken from EP3539969A1, “NOVEL PHOTO-INITIATORS AND THEIR APPLICATION” (ETH Zurich, priority 2018, dated 2019).
Structures can show the parent of a compound that is named as a salt. Where two headings read alike, the source gives them in different places.

Columns and labels:
[1] = 25°C
Description: To determine the solubility, small samples of the respective substance were exactly weighed to Eppendorf tubes. Upon shanking at an Eppendorf thermomixer (25 C @ 1400 rpm), water is added until the whole samples was homogenously dissolved.

[2] = for irradiation time to complete photolysis: 405 nm LED, 80 mM in CD3CN, diphenyl disulfide (3 eq.)
Text: The photolysis has been followed by ^31P NMR. […] The results are further illustrated by Fig. 2

[3] = for ε405: λ = 405 nm
Description: To compare photobleaching, 0.25 mM solutions of ^PhBAPO-ONBu4 and ^MesBAPO-ONBu4 were prepared in THF. UV-Vis spectra were recorded in 2 mm quartz cuvettes prior and after 15 min of irradiation with 265 nm (Lumos 43 LED reactor, Atlas Photonics). Spectra have been smoothed (adjacent averaging, points of window: 5).

[4] = for integral rel. to TPP / integral rel. to t = 0: protected from light
Description: To determine the stability of ^PhBAPO-ONBu4 against hydrolysis, 10 mg were dissolved in 0.6 mL of D2O in a NMR tube protected from light. […] Table 1: Integrals of 31P NMR signals of PhBAPO-ONBu4 relative to TPP as external standard for integration over time.

Cc1cc(C)c(C(=O)P(=O)(O)C(=O)c2c(C)cc(C)cc2C)c(C)c1 [^MesBAPO-ONBu4, bis(mesitoyl)phosphinic acid tetrabutylammonium salt, reference compound]
solubility in water [1]: 3.5 mg/mL
irradiation time to complete photolysis [2]: over 12 min
λmax (longest wave absorption) ([3]; THF): 373 nm
ε ([3]; λ = 244 nm): 5935±72 Lmol^-1cm^-1
ε ([3]; λ = 265 nm (LED wavelength)): 3368±88 Lmol^-1cm^-1
ε ([3]; λ = 359 nm): 211±3 Lmol^-1cm^-1
ε ([3]; λ = 365 nm (LED wavelength)): 216±4 Lmol^-1cm^-1
ε405 [3]: 64 Lmol^-1cm^-1

O=C(c1ccccc1)P(=O)(O)C(=O)c1ccccc1 [^PhBAPO-ONBu4, bis(benzoyl)phosphinic acid tetrabutylammonium salt]
solubility in water [1]: 17.2 mg/mL
half-life [4]: 51.4 days
half time ([4]; hydrolysis in D2O): 51 days
t1 (exponential fitting of the decay, y = e^-x/t1) ([4]; hydrolysis in D2O, over 84 days): 74.2 ± 1.8 days
integral rel. to TPP ([4]; t = 0 d, 10 mg in 0.6 mL D2O): 4.24
integral rel. to t = 0 ([4]; t = 0 d, D2O): 1
integral rel. to TPP ([4]; t = 4 d, D2O): 4.02
integral rel. to t = 0 ([4]; t = 4 d, D2O): 0.9481
integral rel. to TPP ([4]; t = 5 d, D2O): 4.02
integral rel. to t = 0 ([4]; t = 5 d, D2O): 0.9481
integral rel. to TPP ([4]; t = 14 d, D2O): 3.46
integral rel. to t = 0 ([4]; t = 14 d, D2O): 0.816
integral rel. to TPP ([4]; t = 29 d, D2O): 2.98
integral rel. to t = 0 ([4]; t = 29 d, D2O): 0.7028
integral rel. to TPP ([4]; t = 56 d, D2O): 1.98
integral rel. to t = 0 ([4]; t = 56 d, D2O): 0.467
integral rel. to TPP ([4]; t = 84 d, D2O): 1.31
integral rel. to t = 0 ([4]; t = 84 d, D2O): 0.309
irradiation time to complete photolysis [2]: ≤ 6 min
photoactivity relative to ^MesBAPO-ONBu4 ([2]; 405 nm irradiation): at least twice as photoactive as ^MesBAPO-ONBu4
photobleaching ([3]; 0.25 mM in THF, 15 min irradiation with 265 nm): only colourless photoproducts are formed
red shift of λmax compared to ^MesBAPO-ONBu4 ([3]; THF): about 20 nm
λmax (longest wave absorption) ([3]; THF): 394 nm
ε ([3]; λ = 235 nm): 16957±1372 Lmol^-1cm^-1
ε ([3]; λ = 265 nm (LED wavelength)): 3424±88 Lmol^-1cm^-1
ε ([3]; λ = 365 nm (LED wavelength)): 106±2 Lmol^-1cm^-1
ε ([3]; λ = 394 nm): 171±4 Lmol^-1cm^-1
ε405 [3]: 154 Lmol^-1cm^-1
